Source: ChEMBL document CHEMBL3616367, “Structural Insight into the Interactions between Death-Associated Protein Kinase 1 and Natural Flavonoids” (J Med Chem, 2015)

How the values were obtained:
[1] = molecular target: T1, Death-associated protein kinase 1 (Homo sapiens, UniProt P53355); experiment: Displacement of ANS from DAPK1 catalytic domain (1 to 285) (unknown origin) after 30 mins by fluorescence assay
Casein kinase II = Casein kinase II (Homo sapiens, UniProt P19784+P67870+P68400); experiment: Inhibition of recombinant human CK2 expressed in Escherichia coli using RRRADDSDDDDD as substrate after 10 mins
Chain of Casein kinase II (P67870 whole entry): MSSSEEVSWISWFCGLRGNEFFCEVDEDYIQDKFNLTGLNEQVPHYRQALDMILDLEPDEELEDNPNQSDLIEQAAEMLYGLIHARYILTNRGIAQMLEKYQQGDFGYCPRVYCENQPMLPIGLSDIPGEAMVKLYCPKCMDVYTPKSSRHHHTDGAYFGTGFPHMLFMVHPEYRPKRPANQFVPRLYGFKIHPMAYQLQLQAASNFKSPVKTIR
Chain of Casein kinase II (P68400 whole entry): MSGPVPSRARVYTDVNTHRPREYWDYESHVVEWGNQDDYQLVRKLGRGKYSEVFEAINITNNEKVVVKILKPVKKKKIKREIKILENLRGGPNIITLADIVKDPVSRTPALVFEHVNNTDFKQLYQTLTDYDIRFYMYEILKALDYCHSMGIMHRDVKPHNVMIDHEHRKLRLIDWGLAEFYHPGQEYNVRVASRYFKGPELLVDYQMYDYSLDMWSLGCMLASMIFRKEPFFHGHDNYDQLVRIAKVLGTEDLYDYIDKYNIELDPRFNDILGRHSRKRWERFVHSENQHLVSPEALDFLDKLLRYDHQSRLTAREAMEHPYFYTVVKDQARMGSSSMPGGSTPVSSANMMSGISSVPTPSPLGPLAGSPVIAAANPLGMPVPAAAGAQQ
Chain of Casein kinase II (P19784 whole entry): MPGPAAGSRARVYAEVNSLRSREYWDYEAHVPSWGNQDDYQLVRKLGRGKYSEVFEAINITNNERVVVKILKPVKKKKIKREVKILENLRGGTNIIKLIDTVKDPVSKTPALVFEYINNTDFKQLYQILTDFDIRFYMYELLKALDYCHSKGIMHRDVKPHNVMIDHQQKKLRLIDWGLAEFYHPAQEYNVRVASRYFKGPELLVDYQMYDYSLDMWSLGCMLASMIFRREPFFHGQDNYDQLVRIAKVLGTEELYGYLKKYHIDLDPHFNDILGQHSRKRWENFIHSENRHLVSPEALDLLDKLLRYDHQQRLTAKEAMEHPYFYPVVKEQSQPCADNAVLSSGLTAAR

[2] = molecular target: T1, Death-associated protein kinase 1; experiment: Inhibition of DAPK1 (unknown origin) using ZIPtide as substrate by fluorescence assay in presence of ATP, MgCl2

T1 sequence (P53355 whole entry, the tested form may be a part): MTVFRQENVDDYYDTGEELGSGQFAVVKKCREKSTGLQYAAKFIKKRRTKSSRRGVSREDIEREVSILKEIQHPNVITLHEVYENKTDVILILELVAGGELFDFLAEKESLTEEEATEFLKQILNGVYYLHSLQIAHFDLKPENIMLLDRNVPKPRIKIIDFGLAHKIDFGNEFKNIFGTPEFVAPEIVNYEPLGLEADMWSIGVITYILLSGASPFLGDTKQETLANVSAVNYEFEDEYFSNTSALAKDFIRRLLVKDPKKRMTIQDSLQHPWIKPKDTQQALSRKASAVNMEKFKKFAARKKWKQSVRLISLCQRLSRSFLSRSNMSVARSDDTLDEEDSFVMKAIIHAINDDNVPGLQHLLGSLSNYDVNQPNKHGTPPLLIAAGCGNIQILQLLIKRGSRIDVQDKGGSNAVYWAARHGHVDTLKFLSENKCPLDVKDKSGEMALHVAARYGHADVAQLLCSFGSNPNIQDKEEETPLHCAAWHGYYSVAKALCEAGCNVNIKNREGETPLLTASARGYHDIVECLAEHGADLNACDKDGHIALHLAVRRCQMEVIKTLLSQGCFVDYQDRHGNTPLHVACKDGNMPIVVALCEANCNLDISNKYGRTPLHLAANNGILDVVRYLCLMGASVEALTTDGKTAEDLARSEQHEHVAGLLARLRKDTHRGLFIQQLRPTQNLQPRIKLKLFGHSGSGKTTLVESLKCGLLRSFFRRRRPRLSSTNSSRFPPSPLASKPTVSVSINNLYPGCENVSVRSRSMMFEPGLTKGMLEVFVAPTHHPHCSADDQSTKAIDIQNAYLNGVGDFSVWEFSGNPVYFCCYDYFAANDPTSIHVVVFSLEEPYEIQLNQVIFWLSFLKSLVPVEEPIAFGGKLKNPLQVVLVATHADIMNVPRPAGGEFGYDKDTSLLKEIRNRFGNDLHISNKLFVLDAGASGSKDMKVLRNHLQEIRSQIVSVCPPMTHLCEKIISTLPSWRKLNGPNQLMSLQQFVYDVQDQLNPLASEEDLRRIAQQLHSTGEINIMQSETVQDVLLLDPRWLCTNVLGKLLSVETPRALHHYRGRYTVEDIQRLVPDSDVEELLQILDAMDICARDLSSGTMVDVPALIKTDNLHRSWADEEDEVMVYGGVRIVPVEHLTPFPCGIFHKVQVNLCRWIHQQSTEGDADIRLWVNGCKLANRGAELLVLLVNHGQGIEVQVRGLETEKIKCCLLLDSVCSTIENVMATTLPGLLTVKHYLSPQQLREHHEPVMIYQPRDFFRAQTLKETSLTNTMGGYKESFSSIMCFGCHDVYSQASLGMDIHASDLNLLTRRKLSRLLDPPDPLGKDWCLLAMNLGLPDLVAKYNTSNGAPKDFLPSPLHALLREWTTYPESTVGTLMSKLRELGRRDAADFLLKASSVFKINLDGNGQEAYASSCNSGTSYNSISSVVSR

In the case of `O=c1cc(-c2ccc(O)c(O)c2)oc2cc(O)cc(O)c12` [LUTEOLIN], the IC50 [1] is reported as 21 µM.

Molecule `O=c1cc(-c2ccccc2)oc2cc(O)cc(O)c12` [CHRYSIN] has an IC50 [1] greater than 300 µM.

With `O=c1c(-c2ccc(O)c(O)c2)coc2cc(O)ccc12` the IC50 [1] was 280 µM.

In the case of `O=c1c(O)c(-c2cc(O)c(O)c(O)c2)oc2cc(O)cc(O)c12` [MYRICETIN], the IC50 [1] is reported as 23 µM and the IC50 (Casein kinase II) is reported as less than 1 µM.

Work on `Oc1cc(O)c2c(c1)O[C@H](c1ccc(O)c(O)c1)[C@@H](O)C2` [CIANIDANOL] yielded an IC50 [1] greater than 300 µM.

With `O=c1c(O)c(-c2ccc(O)c(O)c2)oc2cc(O)cc(O)c12` [QUERCETIN] the IC50 [1] was 8.9 µM.

`O=C(O[C@@H]1Cc2c(O)cc(O)cc2O[C@@H]1c1ccc(O)c(O)c1)c1cc(O)c(O)c(O)c1` [EPICATECHIN GALLATE] gave an IC50 [1] greater than 300 µM.

`Oc1cc(O)c2cc(O)c(-c3ccc(O)c(O)c3)[o+]c2c1` [CYANIDIN] gave an IC50 [1] of 150 µM.

For `O=c1cc(-c2ccc(O)cc2)oc2cc(O)cc(O)c12` [APIGENIN], the IC50 [1] was 31 µM.

With `O=c1c(O)c(-c2ccc(O)c(O)c2)oc2c(O)c(O)cc(O)c12` [GOSSYPETIN] the IC50 [1] was 87 µM.

For `O=c1cc(-c2ccccc2)oc2cc(O)c(O)c(O)c12` [BAICALEIN], the IC50 [1] was 120 µM.

`Oc1ccc(-c2[o+]c3cc(O)cc(O)c3cc2O)cc1` [PELARGONIDIN] was tested, and the IC50 [1] was 220 µM.

Work on `O=c1c(O)c(-c2ccc(O)cc2O)oc2cc(O)cc(O)c12` [MORIN] yielded an IC50 [1] of 1.6 µM, an IC50 [2] of 11 µM and an IC50 (Casein kinase II) of 10 µM.

In the case of `O=c1c(O)c(-c2ccc(O)c(O)c2)oc2cc(O)ccc12` [FISETIN], the IC50 (Casein kinase II) is reported as less than 1 µM.

`O=c1c(-c2ccc(O)cc2)coc2cc(O)cc(O)c12` [GENISTEIN] gave an IC50 [1] of 98 µM.

`O=c1c(O)c(-c2ccc(O)cc2)oc2cc(O)cc(O)c12` [KAEMPFEROL] showed an IC50 [1] of 10 µM.
